Columns and labels:
[1] = tested on: IRBP R16-induced experimental autoimmune uveoretinitis (EAU); assay: Bovine IRBP R16-induced experimental autoimmune uveoretinitis (EAU): clinical score, AUC, incidence (Example 6); assay type: in vivo, Lewis rats; settings: for Incidence rate (%): 0.4 mg/kg PO QD
Description: On Day-1 (i.e., the day before immunization, hereinafter), 60 rats were randomly divided into 6 groups (n=10) based on body weight (see Table 18). On Day 0, rats in Groups 2 to 6 were anesthetized with isoflurane, followed by subcutaneous injection of a total of […] of emulsion resulting from IRBP R16 and CFA emulsified at a 1:1 v/v ratio, on both thighs (50 μL at each site) and tail head (100 μL), respectively.
From Day 0 after immunization, the eyes of rats were checked daily with a flashlight by gently opening the upper and lower eyelids of the test rats, and the incidence of disease was recorded. Clinical symptoms were scored in a blind manner from the onset of disease to the end of the study according to the criteria listed in Table 17.
(§1) Dosing started from Day 0 accurately according to the animal body weight for a total of 16 days.
The results were expressed as “mean±standard error”. Graphpad Prism or SPSS was used for statistical analysis, and p<0.05 was considered statistically significant.

[2] = Body weight and weight change rate of EAU rats (Example 6); assay type: in vivo, Lewis rats; settings: 0.4 mg/kg PO QD
Description: Wherein, Day 0 referred to the day of immunization. The body weight of each rat was monitored twice a week after immunization.
as §1

[3] = tested on: imiquimod (IMQ)-induced psoriasis; assay: Imiquimod (IMQ)-induced psoriasis in mice: erythema, scales, thickness, total score, AUC (Example 8); assay type: in vivo, Balb/c mice; design: key to erythema score / scales score / thickness score: 0 = none, 1 = mild, 2 = moderate, 3 = obvious/severe; key to total score of erythema + scales + thickness: sum of three 0-3 scores (erythema + scales + thickening), 0-9; settings: for erythema score / scales score: 2 mg/kg topical QD; for thickness score / total score of erythema + scales + thickness: positive control group
Description: All mice were shaved with a pet shaver to get an area of 2×3 cm on the back one day before the start of the experiment.
65 animals were randomly divided into groups according to body weight, and the dosing regimen was as follows.
Imiquimod (IMQ) cream: 62.5 mg of IMQ cream for each mouse in G2 to G7; Dexamethasone (DEX) ointment: 70 mg of ointment for each mouse in G4;
Tofacitinib: Tofacitinib was dissolved in dimethyl sulfoxide to 5 mg/mL, and 50 μL was added to IMQ cream for daily treatment.
Mice in Groups 2 to 7 received daily topical doses of 62.5 mg of IMQ cream on their shaved back from Day 0 to Day 7.
Dosing of the test compounds and reference substance was carried out according to Table 29 for 7 consecutive days.
To assess the severity of inflammation of skin on the back, the skin on the back was scored according to Table 30. Erythema, scales and thickening were scored independently on a scale of 0 to 3, 0, none; 1. mild; 2. moderate; 3. obvious/severe.
The inhibition rate was calculated according to the following formula: Inhibition rate=[AUC (solvent)−AUC (treatment)]/AUC (solvent)×100%. Wherein, solvent referred to the solvent group corresponding to the route of administration.

[4] = Body weight and spleen weight in IMQ-induced psoriasis mice (Example 8); assay type: in vivo, Balb/c mice; settings: 2 mg/kg topical QD × 7 days (G4)
Description: 4) Spleen samples were collected and weighed (FIG. 23).
Body weight was monitored daily throughout the study. Continuous use of IMQ cream could reduce the mean body weight of the solvent group. […] However, there was no statistically significant difference between the treatment and solvent groups (FIG. 21)

[5] = tested on: bleomycin-induced skin fibrosis; assay: Bleomycin-induced skin fibrosis in mice: body weight, spleen weight, spleen/body weight ratio (Example 5); assay type: in vivo, male C57BL/6 mice; settings: 50 mg/kg IP QD, 28 days
Description: Isoflurane (2.0 to 2.5%) was used to anesthetize the animals. The fur of the back was removed, and a 1 cm^2 area was selected for intradermal injection of bleomycin (0.3 mg/kg, 100 μL) every two days to establish a skin fibrosis model.
Dosing started on the day of model establishment. Each animal was weighed for the animal body weight before dosing to calculate the volume of administration, wherein the period of administration was 28 days. […] Frequency of administration: twice a day for Nintedanib group and once a day for other groups.
The change in animal body weight was recorded twice a week from the date of model establishment. The clinical manifestations of animals, such as shortness and difficulty of breath, abdominal suction, decreased activity and malaise, were closely observed.
Animals were weighed at the experimental endpoints and the body weight was recorded to calculate the volume of administration. 6 h after dosing, firstly, whole blood was collected from the orbital venous plexus of mice and subjected to blood routine test using an automated Hematology analyzer (Sysmex XS-800i). […]
Then the animals were euthanized by intraperitoneal injection of pentobarbital sodium. The material and order of dissection were as follows: Spleen was collected and weighed and the weight was recorded. […]
The mean±SEM was calculated using Graphpad prism 6.0 software. […]

[6] = tested on: bleomycin-induced skin fibrosis; assay: Bleomycin-induced skin fibrosis in mice: skin histopathology (dermal thickness, capillary density score, inflammatory cell infiltration score); assay type: in vivo, male C57BL/6 mice; settings: 50 mg/kg IP QD, 28 days
Description: The skin tissue of the lesioned skin was subjected to dehydration, embedding and sectioning according to the pathology SOP, and the tissue was stained by HE and Masson staining. Histopathological analysis was performed according to the following methods:
Masson-stained sections were panoramically scanned by using Nanozomer S210 and the scanned images were subjected to quantitative analysis using Visiopharm VIS6.0 software. The degree of fibrosis was currently represented by the dermal thickness after Masson staining.
The fields of observation was selected in the dermis layer of the lesioned area (the number of fields selected was determined according to the size of the lesioned area) and scored according to the area occupied by capillaries in the area: • 0: No capillary formed • 1: The proportion of capillaries formed was less than 25%; • 2: The proportion of capillaries formed was 25-50%; • 3: The proportion of capillaries formed was 50-75%; • 4: The proportion of capillaries formed was greater than 75%. 3.8.3 Inflammatory cell infiltration score of dermis layer
The fields of observation was selected in the dermis layer of the lesioned area (the number of fields selected was determined according to the size of the lesioned area) and scored according to the degree of inflammatory cell infiltration: • 0: No inflammatory cell infiltration: • 1: A small amount of focal inflammatory cell infiltration; • 2: Scattered diffuse inflammatory cell infiltration: • 3: A large amount of diffuse inflammatory cell infiltration; • 4: A large amount of agglomerated inflammatory cell infiltration.

Compound: C[C@@H]1C[C@H]2[C@@H]3CCC4=CC(=O)C=C[C@]4(C)[C@@]3(F)[C@@H](O)C[C@]2(C)[C@@]1(O)C(=O)CO [Dexamethasone]
- Area under the curve (AUC) of clinical score ([1]; 0.4 mg/kg PO QD × 16 days): 7.68
- Incidence rate (%) ([1]; Day 0): 0%
- Incidence rate (%) ([1]; Day 1): 0%
- Incidence rate (%) ([1]; Day 2): 0%
- Incidence rate (%) ([1]; Day 3): 0%
- Incidence rate (%) ([1]; Day 4): 0%
- Incidence rate (%) ([1]; Day 5): 0%
- Incidence rate (%) ([1]; Day 6): 0%
- Incidence rate (%) ([1]; Day 7): 10%
- Incidence rate (%) ([1]; Day 8): 20%
- Incidence rate (%) ([1]; Day 9): 100%
- Incidence rate (%) ([1]; Day 10): 100%
- Incidence rate (%) ([1]; Day 11): 90%
- Incidence rate (%) ([1]; Day 12): 90%
- Incidence rate (%) ([1]; Day 13): 90%
- Incidence rate (%) ([1]; Day 14): 90%
- Incidence rate (%) ([1]; Day 15): 90%
- Incidence rate (%) ([1]; Day 16): 90%
- Incidence rate (%) ([1]; Day −1): 0%
- inhibition at 0.4 mg/kg ([1]; Rattus norvegicus, 384 h, 0.4 mg/kg PO QD × 16 days, vs model control, read-out: Inhibition rate of clinical score AUC): 84.5%
- Rat body weight ([2]; Day 2): 174.65 g
- Weight change rate (%) ([2]; Day 2): −7.26%
- Rat body weight ([2]; Day 6): 166.65 g
- Weight change rate (%) ([2]; Day 6): −11.53%
- Rat body weight ([2]; Day 9): 164.05 g
- Weight change rate (%) ([2]; Day 9): −12.92%
- Rat body weight ([2]; Day 13): 162.10 g
- Weight change rate (%) ([2]; Day 13): −13.99%
- Rat body weight ([2]; Day 16): 161.29 g
- Weight change rate (%) ([2]; Day 16): −14.44%
- Rat body weight ([2]; Day −1): 188.46 g
- Weight change rate (%) ([2]; Day −1): 0.00%
- erythema score ([3]; Day 0): 0
- scales score ([3]; Day 0): 0
- thickness score ([3]; Day 0): 0
- total score of erythema + scales + thickness ([3]; Day 0): 0
- erythema score ([3]; Day 1): 0
- scales score ([3]; Day 1): 0
- thickness score ([3]; Day 1): 0
- total score of erythema + scales + thickness ([3]; Day 1): 0
- erythema score ([3]; Day 2): 0
- scales score ([3]; Day 2): 0
- thickness score ([3]; Day 2): 0
- total score of erythema + scales + thickness ([3]; Day 2): 0
- erythema score ([3]; Day 3): 0.2
- scales score ([3]; Day 3): 0
- thickness score ([3]; Day 3): 0
- total score of erythema + scales + thickness ([3]; Day 3): 0
- erythema score ([3]; Day 4): 0.1
- scales score ([3]; Day 4): 0.2
- thickness score ([3]; Day 4): 0
- total score of erythema + scales + thickness ([3]; Day 4): 0.3
- erythema score ([3]; Day 5): 0.1
- scales score ([3]; Day 5): 0.2
- thickness score ([3]; Day 5): 0
- total score of erythema + scales + thickness ([3]; Day 5): 0.3
- erythema score ([3]; Day 6): 0
- scales score ([3]; Day 6): 0.2
- thickness score ([3]; Day 6): 0
- total score of erythema + scales + thickness ([3]; Day 6): 0.2
- erythema score ([3]; Day 7): 0
- scales score ([3]; Day 7): 0.1
- thickness score ([3]; Day 7): 0
- total score of erythema + scales + thickness ([3]; Day 7): 0.1
- inhibition at 2 mg/kg ([3]; Mus musculus, 168 h, 2 mg/kg topical QD × 7 days, vs corresponding solvent group, read-out: inhibition rate (AUC of total clinical score)): 97%
- body weight (weight loss) [4]: weight loss was more dramatic

Compound: Cc1ccc(NC(=O)c2ccc(CN3CCN(C)CC3)cc2)cc1Nc1nccc(-c2cccnc2)n1 [Imatinib]
- death of animals [5]: One animal in Imatinib group died on Day 28
- inflammatory cell infiltration of the lesioned skin [6]: visibly reduce
- subdermal capillary hyperplasia [6]: visibly reduce
